The values that follow come from ChEMBL document CHEMBL5150035, “Mechanism-based inhibition of GH127/146 cysteine glycosidases by stereospecifically functionalized l-arabinofuranosides” (Bioorg Med Chem, 2022).

The target of series [1] is T1, Non-reducing end beta-L-arabinofuranosidase (Bifidobacterium longum subsp. longum) (UniProt E8MGH8).
T1 sequence (whole entry): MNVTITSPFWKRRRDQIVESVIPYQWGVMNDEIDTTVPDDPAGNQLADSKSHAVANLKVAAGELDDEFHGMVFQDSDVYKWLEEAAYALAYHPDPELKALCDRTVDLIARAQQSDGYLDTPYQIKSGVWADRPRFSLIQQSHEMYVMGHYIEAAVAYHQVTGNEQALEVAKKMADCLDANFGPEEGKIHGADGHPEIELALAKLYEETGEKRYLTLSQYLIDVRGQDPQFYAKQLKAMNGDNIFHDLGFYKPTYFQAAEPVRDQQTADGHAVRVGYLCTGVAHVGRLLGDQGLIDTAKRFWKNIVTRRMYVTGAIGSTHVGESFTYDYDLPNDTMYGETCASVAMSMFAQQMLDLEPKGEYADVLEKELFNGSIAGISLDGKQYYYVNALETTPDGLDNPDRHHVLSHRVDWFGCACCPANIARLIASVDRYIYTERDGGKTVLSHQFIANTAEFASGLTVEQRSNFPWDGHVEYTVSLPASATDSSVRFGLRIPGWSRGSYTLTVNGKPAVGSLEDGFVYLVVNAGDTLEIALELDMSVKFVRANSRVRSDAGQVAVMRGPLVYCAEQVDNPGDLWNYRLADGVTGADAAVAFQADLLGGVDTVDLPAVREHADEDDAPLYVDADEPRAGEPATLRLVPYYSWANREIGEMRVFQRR
The series can be described thus: Inhibition of C-terminal-His6-tagged Bifidobacterium longum HypBA1 expressed in Escherichia coli C43 (DE3) cells assessed as reduction in pNP liberation using pNP-beta-L-Araf as substrate at 0.1 to 1 mM preincubated with enzyme for 2 hrs followed by substrate addition and measured after 24 hrs by spectrophotometric analysis. The conditions noted are these: dose 0.1-1 mM, time 26.0 hrs.

Series [2] can be described thus: Drug metabolism assessed as hydrolysed metabolite formation at 10 mM incubated for 24 hrs in presence of TCEP by TLC analysis. The conditions noted are these: 10000 µM. In kind it is ADME.
A short description of series [3]: Substrate activity at Bifidobacterium longum JCM 1217 HypBA1 homologue BLLJ_1848 at 10 mM incubated for 24 hrs in absence of TCEP by TLC analysis. It is filed as ADME. The conditions noted are these: 10000 µM.
Series [4] is described as follows: Substrate activity at Bifidobacterium longum JCM 1217 HypBA1 homologue BLLJ_1848 at 10 mM incubated for 24 hrs in presence of TCEP by TLC analysis. In kind it is ADME. Conditions: 10000 µM.
The target in series [5] is T1, Non-reducing end beta-L-arabinofuranosidase (Bifidobacterium longum subsp. longum). The series can be described thus: Inhibition of C-terminal-His6-tagged Bifidobacterium longum HypBA1 expressed in Escherichia coli C43 (DE3) cells […] using L-Araf3-Hyp as substrate preincubated with enzyme for 2 hrs followed by substrate addition and measured after 24 hrs by spectrophotometric analysis. The conditions noted are these: time 26.0 hrs.

The subject of series [6] is Bifidobacterium longum. Nature of the series: Inhibition of Bifidobacterium longum JCM 1217 HypBA1 homologue BLLJ_1848 using S3 as substrate preincubated with enzyme followed by substrate addition for 30 mins in presence of TCEP by HPLC-FLD analysis.
Series [7] relates to Bifidobacterium longum. Nature of the series: Inhibition of Bifidobacterium longum JCM 1217 HypBA1 homologue BLLJ_1848 using S3 as substrate preincubated with enzyme followed by substrate addition for 30 mins in absence of TCEP by HPLC-FLD analysis.

Structures are written as SMILES. The source made the active and inactive calls. No cut-off for these calls is given here.

Regarding `O=C(CBr)N[C@H]1O[C@@H](CO)[C@H](O)[C@H]1O`, in series [1], the inhibition result is “Active”.

With `[N-]=[N+]=N[C@H]1O[C@@H](CO)[C@H](O)[C@H]1O`, the Drug metabolism entry in series [2] is “Metabolite_Detected”. The result in series [3] and in series [4] was Active. Consider `O=C(CBr)N[C@@H]1O[C@@H](CO)[C@H](O)[C@H]1O`, for which, in series [1], the inhibition entry was “Active”.

Regarding `O=C(CCl)N[C@@H]1O[C@@H](CO)[C@H](O)[C@H]1O`, the inhibition result in series [5] was “Active”.

For the molecule `O=C(CCl)N[C@H]1O[C@@H](CO)[C@H](O)[C@H]1O`, the inhibition result in series [5] is “Active”. On to `[N-]=[N+]=N[C@@H]1O[C@@H](CO)[C@H](O)[C@H]1O`, for which, in series [2], the Drug metabolism result is “Metabolite_Detected”. Further, the inhibition entry with Bifidobacterium longum [6] and with Bifidobacterium longum [7] was “Active” throughout. The result in series [4] was Active.
